Where a name gives a salt, the structure may show the parent alone.

Test [1] has as its system Meth A fibrosarcoma. The experiment in a line: In vivo Meth A fibrosarcoma test. The note with it: for Tumor volume (% of control) day 7: day 7 after tumor implantation; for Survivors (tumor free): ten CBF₁ mice. More on the design: species or system mouse.
Description: In vivo Meth A fibrosarcoma test in the mouse:
Ten CBF₁ mice of 10-12 week age are each implanted with 7.3 x 10⁶ Meth A sarcoma cells to serve as control. A second group of ten CBF₁ mice are each implanted with 7.3 x 10⁶ Meth A sarcoma cells and on day one after implant each mouse is treated p.o. with from 5 »g to 50 »g of the test compound per day for a total of twenty or twenty-seven days. Tumor growth and survivors are assayed on days 7, 14, 21 and 28 after tumor implantation.
The subject of test [2] is Experimental allergic encephalomyelitis. The experiment in a line: Experimental allergic encephalomyelitis (EAE test), preventive treatment. The note with it: for Animals with total paralysis) % / Animals with total paralysis) No./total: preventive treatment, 25 mg/kg/day p.o., rat; for Animals with total paralysis) No./total: number of animals with total paralysis per total number of rats treated. The test is classed as in vivo, rat. How it is done:
1. Experimental allergic encephalomyelitis (EAE test) in the rat; preventive treatment:
[Levine et al., Am. J. Path. 47 (1965) 61; McFarlin et al., J. Immunol. 113 (1974) 712; Borel, Transplant. & Clin. Immunol. 13 (1981) 3]:
Male Wistar rats are injected in the hind paws with 0.1 ml of a mixture of bovine spinal cord and complete Freund's adjuvant. The test compound is administered at dosages of from 5 to 50 mg/kg/day p.o. 5 days a week, commencing on the day of sensitization and continuing for 2 weeks. Onset of EAE in control groups receiving no medication generally commences between 9 to 16 days after sensitization and is marked by symptoms of paralysis in the hind limbs and tail. Test animals are examined daily for symptoms of the disease and disease occurrence is scored according to their severity. Total paralysis means complete involvement of both hind legs and tail. The test animals are kept under observation for a total period of 50 days.

The test system of test [3] is Delayed-type hypersensitivity. The test is described as follows: Delayed-type hypersensitivity (DTH test) mediated by cloned helper T cells. As to conditions: footpad swelling after 24 h. The test is classed as in vivo, mouse. How it is done:
4. Delayed-type hypersensitivity (DTH test) in the mouse:
Suppression of DTH mediated by cloned helper T cells is tested with mice injected subcutaneously with cloned helper T cells together with the relevant antigen, namely sheep erythrocytes, in one hind footpad and with the same clone plus an unrelated antigen as control in the other footpad. The drugs are administered orally twice, first one day before and again at the time of the cell injection. After 24 h the increase in footpad thickness is measured. Footpad swelling is indicated as percentage compared with the control group (placebo).

Test [4] has as its system Abelson 8.1 lymphoma. The experiment in a line: Tumor cell cytotoxicity test (TCC test). The class given is cell-based. As to conditions: 72 hours. The protocol: (§1) 1. Tumor cell cytotoxicity test (TCC test):
(§2) In flat bottom microtiter plates (Nunc Roskieide, Denmark) are placed Abelson 8.1 lymphoma, YAC-1, L1210 or P815 tumor cells in Dulbecco modified Eagle's medium (DMEM) + 10 % fetal calf serum and the tumor cell-containing plates are incubated with 1, 3 and 5 »g of the test compound for a period of 6 to 72 hours. The number of viable tumor cells present in the Abelson 8.1, YAC-1, L1210 and P815 assays is determined by measuring the alkaline phosphatase in the following manner: the tumor cell plates are centrifuged (500 x g) for ten minutes and the supernatant flicked off. Without further washing, 100 »l of buffer containing 20 »l of diethanolamine, 2 »M of MgCl₂·6H₂O, 2.5 »M of p-nitrophenylphosphate and 10 mg Triton X-100 are added. The samples are incubated for 60 minutes at room temperature and the enzymatic reaction is terminated by the addition of 100 »l of 0.5 N NaOH. The absorbance is then measured at […] using a Titertek Multiskan apparatus.
(§3) At an incubation period of 72 hours the following results were obtained: […]

For test [5], the system named is YAC-1. The experiment in a line: Tumor cell cytotoxicity test (TCC test). As to conditions: 72 hours. The test is classed as cell-based. How it is done: as §1, §2, §3
Test [6] has as its system P815. The test is described as follows: Tumor cell cytotoxicity test (TCC test). The test is classed as cell-based. The note with it: 72 hours. How it is done:
as §1, §2, §3

For test [7], the system named is L1210. The experiment in a line: Tumor cell cytotoxicity test (TCC test). The test is classed as cell-based. As to conditions: 72 hours. How it is done: as §1, §2, §3
For test [8], the system named is Experimental allergic encephalomyelitis. The experiment in a line: Experimental allergic encephalomyelitis (EAE test), therapeutic treatment. The class given is in vivo, rat. The protocol: 2. Experimental allergic encephalomyelitis (EEA test) in the rat; therapeutic treatment:
Testing is carried out analogously to that described above with the exception that the administration of the test compound commences on day 7 after sensitization (i.e. immediately prior to appearance of disease symptoms) at dosages of from 5 to 50 mg/kg/day p.o. either daily or every second day and continuing for one week. During the testing period the animals are examined daily for symptoms of the disease and scored as in the previous test method.

Test [9] deals with Chronic relapsing experimental allergic encephalomyelitis. The test is described as follows: Chronic relapsing experimental allergic encephalomyelitis (CR-EAE test), therapeutic treatment. As to conditions: 5 to 50 mg/kg/day p.o. for 16 days starting on day 16; for inhibiting the appearance of mild to severe clinical symptoms: for the period of treatment; for protective efficacy: during treatment and following discontinuation of drug. The test is classed as in vivo, rat.

As to `CCCCCCCCCCCCCCCCCCOCC1(COP(=O)([O-])OCC[N+](C)(C)C)CCCO1` (racemic) [Example 5 of USP 4'673'672, reference compound], the “Tumor volume (% of control) day 7” value in test [1] (5 »g per mouse per day p.o.) was 82 % of control; in test [1] (50 »g per mouse per day p.o.), 76 % of control. The “Tumor volume (% of control) day 14” value in test [1] (5 »g per mouse per day p.o.) is given as 47 % of control; in test [1] (50 »g per mouse per day p.o.), 38 % of control. For the same molecule, the entries for the “Tumor volume (% of control) day 21” value in test [1] (5 »g per mouse per day p.o.) and in test [1] (50 »g per mouse per day p.o.) were 20 % of control and 14 % of control, respectively. Further, the entries for the “Tumor volume (% of control) day 28” value in test [1] (5 »g per mouse per day p.o.) and in test [1] (50 »g per mouse per day p.o.) were 32 % of control and 21 % of control, respectively. Moreover, the “Survivors (tumor free)” value in test [1] (5 »g per mouse per day p.o.) was 3/10; in test [1] (50 »g per mouse per day p.o.) it was 6/10. The “Animals with total paralysis) %” value in test [2] is listed as 43%. Also, in test [2], the “Animals with total paralysis) No./total” value was 3/7. Also, the “Suppression of DTH (%)” value in [3] (2 x 40 mg/kg orally) stood at 31%; in test [3] (2 x 80 mg/kg orally) it was 88%. Also, the “Inhibition with tumor cells (%) Abelson 8.1” value (shortened to “Inhibition … (%) Abelson 8.1”) in test [4] (1 »g/ml) was determined as 68%; in [4] (3 »g/ml), 97%; in test [4] (5 »g/ml), 98%. Also, the results for the “Inhibition with tumor cells (%) YAC-1” value in [5] (1 »g/ml), in [5] (3 »g/ml) and in [5] (5 »g/ml) were 19%, 74% and 91%, respectively. The “Inhibition with tumor cells (%) P815” value in test [6] (1 »g/ml) came to 40%; in [6] (3 »g/ml), 87%; in test [6] (5 »g/ml), 95%. Besides, the “Inhibition with tumor cells (%) L1210” value in test [7] (1 »g/ml) was found to be 0%; in test [7] (3 »g/ml), 80%; in test [7] (5 »g/ml), 91%. For the same molecule, in [8] (therapeutic treatment from day 7, 25 mg/kg/day p.o., rat), the “Animals with EAE) %” value is reported as 29%. The “Animals with EAE) No./total” value in [8] (therapeutic treatment from day 7, 25 mg/kg/day p.o., rat, number of animals with symptoms of disease per total number of rats treated) is on record as 2/7.

For the molecule `CCCCCCCCCCCCCCCCCCOCC1(COP(=O)([O-])OCC[N+](C)(C)C)CCCO1` (racemic) [compound of Example 5 of USP 4'673'672], the “inhibiting the appearance of mild to severe clinical symptoms” value in test [9] is recorded as “effective”.

For `CCCCCCCCCCCCCCCCCCOC[C@@]1(COP(=O)([O-])OCC[N+](C)(C)C)CCCO1` [Compound of formula I, (R)-2-[(2-Octadecyloxymethyltetrahydrofuran-2-ylmethoxy)-hydroxyphosphinyloxy]-N,N,N-trimethylethanaminium hydroxide inner salt-4-oxide], the “Tumor volume (% of control) day 7” value in test [1] (5 »g per mouse per day p.o.) is on record as 90 % of control; in [1] (50 »g per mouse per day p.o.), 85 % of control. For the same molecule, the “Tumor volume (% of control) day 14” value in test [1] (5 »g per mouse per day p.o.) is recorded as 52 % of control; in test [1] (50 »g per mouse per day p.o.), 53 % of control. Moreover, the “Tumor volume (% of control) day 21” value in [1] (5 »g per mouse per day p.o.) and in [1] (50 »g per mouse per day p.o.) was 21 % of control in each case. The results for the “Tumor volume (% of control) day 28” value in test [1] (5 »g per mouse per day p.o.) and in test [1] (50 »g per mouse per day p.o.) were 37 % of control and 32 % of control, respectively. Besides, the “Survivors (tumor free)” value in test [1] (5 »g per mouse per day p.o.) is on record as 2/10; in test [1] (50 »g per mouse per day p.o.), 3/10. In addition, the “occurrence of clinical symptoms” value in [2] (5 to 50 mg/kg/day p.o. 5 days a week for 2 weeks, versus placebo control groups) is “substantial reduction of occurrence of clinical symptoms”. Moreover, the “Animals with total paralysis) %” value in test [2] was determined as 36%. The “Animals with total paralysis) No./total” value in [2] is on record as 5/14. For the same molecule, the “Suppression of DTH (%)” value was 73% in test [3] (2 x 40 mg/kg orally) and 88% in [3] (2 x 80 mg/kg orally). In addition, the results for the “Inhibition … (%) Abelson 8.1” value in test [4] (1 »g/ml), in test [4] (3 »g/ml) and in test [4] (5 »g/ml) were 29%, 93% and 95%, respectively. The “Inhibition with tumor cells (%) YAC-1” value in test [5] (1 »g/ml) was 8%; in test [5] (3 »g/ml) it was 86%; in test [5] (5 »g/ml), 96%. Further, the “Inhibition with tumor cells (%) P815” value in test [6] (1 »g/ml) was determined as 32%; in test [6] (3 »g/ml), 80%; in test [6] (5 »g/ml), 97%. Also, the results for the “Inhibition with tumor cells (%) L1210” value in test [7] (1 »g/ml), in test [7] (3 »g/ml) and in [7] (5 »g/ml) were 16%, 76% and 87%, respectively. Moreover, the protective efficacy entry in test [9] is “effective to fully protect all animals both during treatment and following discontinuation of drug”. Moreover, the “inhibiting the appearance of mild to severe clinical symptoms” value in test [9] is listed as “effective”. In test [8] (5 to 50 mg/kg/day p.o. from day 7 for one week, versus placebo control groups), the “appearance of EAE disease symptoms” value is “substantial reduction of appearance of EAE disease symptoms”.

As to `CCCCCCCCCCCCCCCCCCOC[C@]1(COP(=O)([O-])OCC[N+](C)(C)C)CCCO1` [Enantiomer of the compound of formula I, (S)-2-[(2-Octadecyloxymethyltetrahydrofuran-2-ylmethoxy)-hydroxyphosphinyloxy)-N,N,N-trimethylethanaminium hydroxide inner salt-4-oxide], the “Tumor volume (% of control) day 7” value is recorded as 66 % of control in [1] (5 »g per mouse per day p.o.) and 70 % of control in test [1] (50 »g per mouse per day p.o.). Further, the “Tumor volume (% of control) day 14” value in [1] (5 »g per mouse per day p.o.) is listed as 19 % of control; in test [1] (50 »g per mouse per day p.o.), 28 % of control. Besides, the “Tumor volume (% of control) day 21” value in [1] (5 »g per mouse per day p.o.) was 6 % of control; in test [1] (50 »g per mouse per day p.o.) it was 8 % of control. For the same molecule, the “Tumor volume (% of control) day 28” value is reported as 11 % of control in test [1] (5 »g per mouse per day p.o.) and 13 % of control in test [1] (50 »g per mouse per day p.o.). The “Survivors (tumor free)” value in [1] (5 »g per mouse per day p.o.) is given as 8/10; in test [1] (5 »g per mouse per day p.o., listed as (S)-isomer) it was 8 out of 10; in test [1] (50 »g per mouse per day p.o.) it was 8/10. Besides, the “Animals with total paralysis) %” value in test [2] is recorded as 86%. Further, in test [2], the “Animals with total paralysis) No./total” value is 12/14. The “Suppression of DTH (%)” value is 16% in test [3] (2 x 40 mg/kg orally) and 40% in test [3] (2 x 80 mg/kg orally). Further, the results for the “Inhibition … (%) Abelson 8.1” value in test [4] (1 »g/ml), in test [4] (3 »g/ml) and in [4] (5 »g/ml) were 91%, 98% and 98%, respectively. The “Inhibition with tumor cells (%) YAC-1” value in test [5] (1 »g/ml) is on record as 40%; in [5] (3 »g/ml), 78%; in test [5] (5 »g/ml), 91%. The “Inhibition with tumor cells (%) P815” value in [6] (1 »g/ml) amounted to 84%; in test [6] (3 »g/ml) it was 93%; in test [6] (5 »g/ml) it was 97%. Moreover, the “Inhibition with tumor cells (%) L1210” value is 45% in test [7] (1 »g/ml), 92% in test [7] (3 »g/ml) and 97% in [7] (5 »g/ml). The protective efficacy entry in test [9] is on record as “much less effective protective efficacy during treatment”.

The record behind these values is patent EP0462935B1, “Enantiomers of 2-tetrahydrofuran derivatives, intermediates therefor and their preparation” (SANDOZ AG, priority 1990, dated 1991).
